# Where “and” joins values, the source holds several entries; their conditions need not be identical. Equal values may be shown once. Read-outs that look alike come from different tables or passages of the source.
# Experiments:
# hiPSC-CMs [1] = conditions: for modulation of beating rates (in words): beta-blocker applied alone; for effect on isoprenaline-induced increase in beating frequencies (in words): clusters initially treated with isoprenaline
# Text: (§1) To characterize the electrophysiological properties of the hiPSC-CMs, a multielectrode array (MEA) recording system (Multichannel Systems, Reutlingen, Germany) was used. The contracting areas were microdissected and plated on gelatin coated MEA plates. The MEA system allows simultaneous recordings from 60 titanium nitride electrodes (30 μm) at high spatial (200 μm) and temporal (15 kHz) resolutions. To assess the effects of different drugs on the electrophysiological properties, the stock drugs in DMSO were diluted in medium (2 mL). All drugs utilized in the study were purchased from Sigma, USA. Extracellular recording were performed for 180-300 seconds at baseline and at 5 minutes after drug application. The local activation maps were generated using Cardio2D software (Multichannel Systems, Reutlingen, Germany). The recorded electrograms were also used to determine the local field potential (FP) duration (FPD).
# The different agents were also evaluated to determine if these agents (drugs) could induce arrhythmia in hiPSC-CMs at supraphysiological ranges.
# [2] = system: hiPSC-CMs (human induced pluripotent stem cell-derived cardiomyocyte-like cells, lines C2 and C3); experiment: Multielectrode array (MEA) field potential recording: cFPD and FPmin; type: cell-based; conditions: for FPmin (normalized values): baseline 100±0; for change in FPmin (in words) / changes in cFPD (in words): drug alone; for changes in cFPD (in words): CMs from both cell lines; for cFPD (normalized) after reversal of isoprenaline-reduced cFPD: beta-blocker applied after isoprenaline (0.1 μM); for cFPD effect relative to human ETPC unbound range (in words): non-linear regression of normalized cFPD, dose range 10^−9-10^−4 M
# Description: Human iPSC lines [MSnviPSNF2 (C2), MSnviPSNF3 (C3)] were maintained on 1% matrigel (BD Biosciences, CA, USA) and grown in chemically defined mTeSR1 medium (Stem Cell Technologies, VA, Canada). Care was taken to manually remove the differentiated areas (<10%) with the help of a scraper before passaging. Cells were washed with DMEM-F12 (Invitrogen, USA) and incubated with 1 mg/ml dispase (Sigma, USA) for 5-7 minutes. Cells were then washed with DMEM-F12 and colonies scrapped from the culture dishes. Controlled tituration of the colonies was performed to get small clumps of approximately 50-70 μm in size for replating on new matrigel coated dishes (1:6 split ratio).
# Subsequently, EBs were plated on 0.1% gelatin coated dishes in EB medium without SB203580. […] Beating areas were manually cut after day 21 of differentiation and utilized for various experiments.
# as §1
# Comparisons at each time point were conducted using analysis of variance (ANOVA), and all data are presented as mean values±s.e.m of three independent experiments. Differences were considered statistically significant at p≦0.05. Corrected field potential duration curves were fitted using the one phase decay algorithm from GraphPad Prism software.
# hiPSC-CMs [3] = experiment: MEA conduction velocity; type: cell-based, human
# Text: as §1
# [4] = system: contracting EBs (iPSC-derived cardiomyocyte-like cells); experiment: Beat rate variability analysis in beta-adrenergic response (power spectral density of RR intervals); type: cell-based, human; conditions: 0.1 μM isoprenaline, then 1 μM beta-blocker where stated
# Text: To study the autonomic modulations of beating period of the contracting EBs, power spectral density of beat-to-beat or RR intervals based on 5-min recordings from the MEA were used to derive the Total Power (TP), very low frequency power (VLF), low frequency power (LF), high frequency power (HF), LF (normalized unit), HF (normalized unit) and ratio of LF/HF of spectral of beat rate variability using software such as HRV Toolkit (physionet.org/tutorials/hrv-toolkit/, Harvard Medical School) or LabVIEW Biomedical Toolkit for heart rate variability. […] The data were obtained using iPSC-derived cardiomyocyte-like cells from an individual with genetic pre-disposition to cardiac arrhythmia (n=4; referring to 4 regional areas within an EB), and iPSC-derived cardiomyocyte-like cells from a normal individual without genetic pre-disposition to cardiac arrhythmia (n=10).
# [5] = human, unbound therapeutic plasma concentration; cited from earlier work
# [6] = EBs from individual with genetic disposition to arrhythmia (n=4)
# [7] = EBs from normal healthy donor (n=10)
# [8] = over all three tested doses (range 0.01-10 μM)
structure (smiles),measurement,setting,value
"CCCCc1oc2ccccc2c1C(=O)c1cc(I)c(OCCN(CC)CC)c(I)c1 [amiodarone, Amiodarone]",effect on beating frequencies (in words),"hiPSC-CMs [1]; higher doses, 10-100 μM",increased beating frequencies
same,cFPD prolongation,[2]; 1 μM,37%
same,cFPD,"[2]; 1 μM, C2 derived CM, baseline 0.26±0.009 s, n=3",0.36 ± 0.01 s
same,FPmin shortening,"[2]; 1 μM, C2 derived CMs",25%
same,FPmin (normalized values),"[2]; 1 μM, C2 derived CMs, n=3",73.6±3.8
same,FPmin (normalized values),"[2]; 1 μM, C3 derived CMs, n=3, ns",90±2.7
same,FPmin reduction,"[2]; 1 μM, C3 derived CMs, ns",10%
"O=C(NCC1CCCCN1)c1cc(OCC(F)(F)F)ccc1OCC(F)(F)F (centres unmarked) [flecainide, Flecainide]",reduction of conduction velocity,hiPSC-CMs [3]; 1 μM,45%
same,reduction of conduction velocity (in words),"hiPSC-CMs [3]; lowest dose, 0.01 μM",did not show any significant reduction
same,increase in beating frequencies,hiPSC-CMs [1]; 10 μM,2 fold
same,increase in cFPDs,[2]; 1 μM,1.7 fold
same,cFPD,"[2]; 1 μM, C2 derived CMs, baseline 0.32±0.04 s, n=3",0.55 ± 0.06 s
same,change in FPmin (in words),[2],did not show any significant change
CC(C)NCC(O)c1ccc(O)c(O)c1 (centres unmarked) [isoprenaline],HF (normalized unit),[4]; [6],38.864±16.674%
same,LF (normalized unit),[4]; [6],61.136±16.674%
same,LF/HF ratio,[4]; [6],1.897±1.052
same,Total Power (TP) of beat rate variability,[4]; [6],0.464±0.047 ms^2
same,high frequency power (HF),[4]; [6],0.064±0.095 ms^2
same,low frequency power (LF),[4]; [6],0.058±0.043 ms^2
same,very low frequency power (VLF),[4]; [6],0.341±0.167 ms^2
same,HF (normalized unit),[4]; [7],25.494±2.381%
same,LF (normalized unit),[4]; [7],74.505±2.380%
same,LF/HF ratio,[4]; [7],2.949±0.326
same,Total Power (TP) of beat rate variability,[4]; [7],0.645±0.001 ms^2
same,high frequency power (HF),[4]; [7],0.017±0.002 ms^2
same,low frequency power (LF),[4]; [7],0.050±0.001 ms^2
same,very low frequency power (VLF),[4]; [7],0.578±0.002 ms^2
same,effect on beating frequencies (in words),hiPSC-CMs [1]; clusters treated with the beta-adrenergic agonist,significant increase in beating frequencies
same,cFPD reduction,[2]; 0.1 μM,20%
same,cFPD (normalized),"[2]; 0.1 μM isoprenaline, baseline 100±0.0%, n=3",81.2±2.4% and 79.6±3.4%
"CCN(CC)CC(=O)Nc1c(C)cccc1C [lidocaine, Lidocaine]",reduction of conduction velocity,hiPSC-CMs [3]; [8],40%
same,changes in cFPD (in words),[2],did not demonstrate any significant changes
same,"effect on FPmin, dose-dependent treatment (in words)",[2]; maximal effects at 10 μM dosage,FPmin shortening
"CC(C)(C)NCC(O)COc1cccc2c1CC(O)C(O)C2 (centres unmarked) [nadolol, Nadolol]",modulation of beating rates (in words),hiPSC-CMs [1],not apparent
same,effect on isoprenaline-induced increase in beating frequencies (in words),hiPSC-CMs [1],reversed
same,ETPC unbound range,[5],0.18 to 0.80 µM
same,cFPD (normalized) after reversal of isoprenaline-reduced cFPD,[2]; n=3,92.3±1.5%
same,change in FPmin (in words),[2],did not have any significant effects
same,changes in cFPD (in words),[2],did not have any significant effects
same,cFPD effect relative to human ETPC unbound range (in words),[2],no significant cFPD prolongation within the ETPC unbound range
"CC(C)NCC(O)COc1cccc2ccccc12 (centres unmarked) [propranolol, Propranolol]",modulation of beating rates (in words),hiPSC-CMs [1],not apparent
same,effect on isoprenaline-induced increase in beating frequencies (in words),hiPSC-CMs [1],reversed
same,effect on beating frequencies (in words),"hiPSC-CMs [1]; higher doses, 10-100 μM",did not show any major effect
same,cFPD (normalized) after reversal of isoprenaline-reduced cFPD,[2]; n=3,98.3±4.5%
same,change in FPmin (in words),[2],did not have any significant effects
same,changes in cFPD (in words),[2],did not have any significant effects
"C=C[C@H]1C[N@@]2CC[C@H]1C[C@@H]2[C@@H](O)c1ccnc2ccc(OC)cc12 [quinidine, Quinidine]",reduction of conduction velocity,hiPSC-CMs [3]; [8],20-25%
same,increase in beating frequencies,hiPSC-CMs [1]; 100 μM,3 fold
same,beating frequency (BF),"hiPSC-CMs [1]; 100 μM, baseline 0.66±0.06 Hz, n=3",1.84±0.08 Hz
same,FPmin shortening,"[2]; 10 μM, C2 cell line derived CMs",55%
same,FPmin (normalized),"[2]; 10 μM, C2 cell line derived CMs, baseline 100, n=3",45±3.5%
same,cFPD,"[2]; 10 μM, C2 line derived CMs, baseline 0.31±0.03 s, n=3",0.50 ± 0.05 s
same,maximum FPmin shortening,"[2]; 10 μM, C3 cell line derived CMs",37%
same,cFPD prolongation,"[2]; 10 μM, CMs derived from C2 line",62%
same,cFPD prolongation,"[2]; 10 μM, hiPSC-CMs (FIG. 1A, C)",55%
"CC(C)NCC(O)c1ccc(NS(C)(=O)=O)cc1 (centres unmarked) [sotalol, Sotalol]",increase in beating frequencies,hiPSC-CMs [1]; 500 μM,1.8 fold
same,ETPC unbound range,[5],1.8 to 14 µM
same,cFPD prolongation,[2]; 50 μM,65%
same,change in FPmin (in words),[2],did not show any significant change
same,cFPD effect relative to human ETPC unbound range (in words),[2],maximally observed within the human ETPC range
"COc1ccc(CCN(C)CCCC(C#N)(c2ccc(OC)c(OC)c2)C(C)C)cc1OC (centres unmarked) [verapamil, Verapamil]",effect on beating frequencies (in words),hiPSC-CMs [1],significantly reduced beating frequencies
same,effect of prolonged exposure (in words),hiPSC-CMs [1]; 5 μM,beating arrest

# — patent US20140363841A1, “INDUCED PLURIPOTENT STEM CELL (IPSC)-DERIVED CARDIOMYOCYTE-LIKE CELLS AND USES THEREOF” (priority 2012, published 2014)
